From patent publication US5385829A, “Method of assaying for acyl-L-carnitines and short-chain acyl-carnitines” (priority 1990, dated 1995)

How the values were obtained:
[1] = test system: L-carnitine dehydrogenase; experiment: Substrate specificity of L-carnitine dehydrogenase; assay type: biochemical; conditions: L-carnitine dehydrogenase from Alcaligenes sp. No. 981
Experimental: 1 ml of the reaction solution was placed in a small test tube and incubated at 37° C. for 5 mins. and thereto was added 0.02 ml of the […] solution to be examined, to cause the reaction, with agitation. After 10 mins. 2 ml of 0.1N aq. HCl were added thereto to terminate the reaction and the A550 nm of the solution was measured to obtained the absorbance A1.
On the other hand, the same procedures were repeated for a reaction solution in which the L-carnitine was omitted, to obtain the absorbance A0.

[2] = test system: L-carnitine dehydrogenase; experiment: Km values and coenzyme reactivity of L-carnitine dehydrogenase; assay type: biochemical, Alcaligenes sp. No. 981; conditions: for Km: L-carnitine dehydrogenase, 100 mM tris-HCl buffer pH 9.0
Experimental: The L-carnitine dehydrogenase used in preparing the analysis reagent for determining the amount of L-carnitine, should have reactivity to the substrate, namely, L-carnitine, and may be employed in combination with a coenzyme such as an NAD (preferably NAD or thio-NAD). Such reactivity can be confirmed using the combination of such coenzyme with the substrate. For example, it has been confirmed that, when using L-carnitine as the substrate and thio-NAD as the coenzyme in 100 mM tris-HCl buffer solution (pH 9.0), the L-carnitine dehydrogenase produced from Alcaligenes sp.
Km value for NAD^+ was determined by varying the concentration of the NAD^+ in a reaction solution containing 100 mM tris-HCl buffer solution (pH 9.0). 5 units of diaphorase (a product of Toyo Jozo), 0.025% of NBT (a product of Wako Pure Chemical Ind.), 1% of Tween 80 (a product of Wako Pure Chemical Ind.) and 50 mM L-carnitine, whereby a value of 0.141 mM was obtained.

C[N+](C)(C)CC(=O)[O-] [Glycinebetaine]
Relative Specificity % [1]: 0%

C[N+](C)(C)C[C@H](O)CC(=O)[O-] [L-carnitine]
Relative Specificity % [1]: 100% | Km [2]: 9300 µM

NCCCC[C@H](N)C(=O)O [Lysine]
Relative Specificity % [1]: 0%

NC(=O)c1ccc[n+]([C@@H]2O[C@H](COP(=O)([O-])OP(=O)(O)OC[C@H]3O[C@@H](n4cnc5c(N)ncnc54)[C@H](O)[C@@H]3O)[C@@H](O)[C@H]2O)c1 [NAD, nicotinamide adenine dinucleotide]
Km [2]: 140 µM | Km ([2]; listed as NAD^+): 141 µM

NC(=S)c1ccc[n+]([C@@H]2O[C@H](COP(=O)([O-])OP(=O)(O)OC[C@H]3O[C@@H](n4cnc5c(N)ncnc54)[C@H](O)[C@@H]3O)[C@@H](O)[C@H]2O)c1 [thio-NAD, thionicotinamide adenine dinucleotide]
enzymatic activity relative to the activity when using NAD as the coenzyme ([2]; L-carnitine as substrate, 100 mM tris-HCl pH 9.0): about 15% | Km [2]: 490 µM

Glucose
Relative Specificity % [1]: 0%
